From patent US8471005B2 (Cephalon, Inc., priority 2008, dated 2013)
Read-outs that look alike come from different tables or passages of the source.

Assays:
[1] = molecular target: T1, ALK (Homo sapiens, UniProt Q9UM73); assay: ALK Kinase Assay (ELISA/TRF, PLC-γ substrate); type: biochemical; settings: read-out: ALK Potency
T1 construct: host or cells: baculovirus expression system
Summary of the method: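 PLC-γ substrate coated at 10 μg/mL in TBS; reaction started with 30 ng/ml ALK, run 15 min at 37° C. Phosphoproduct detected by TRF with Eu-N1-labeled PT66 anti-phosphotyrosine antibody. IC50 from sigmoidal variable-slope fit of percent inhibition versus log concentration.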

[2] = molecular target: T2, JAK2 (Homo sapiens, UniProt O60674); assay: Recombinant Human JAK2 Kinase Assay (TRF); type: biochemical; settings: read-out: JAK2 Potency
T2 construct: host or cells: baculovirus expression system
Summary of the method: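 Kinase activity of baculovirus-expressed JAK2 is followed on a surface-immobilised biotinylated peptide, with the reaction run for 20 min at room temperature in buffer containing 0.2 μM ATP and manganese. Phosphorylation is read with Eu-N1 PY100 antibody.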

[3] = ALK kinase inhibition, 1 μM ATP
[4] = JAK2 kinase inhibition, 0.2 μM ATP

T1 sequence (Q9UM73 19-1620): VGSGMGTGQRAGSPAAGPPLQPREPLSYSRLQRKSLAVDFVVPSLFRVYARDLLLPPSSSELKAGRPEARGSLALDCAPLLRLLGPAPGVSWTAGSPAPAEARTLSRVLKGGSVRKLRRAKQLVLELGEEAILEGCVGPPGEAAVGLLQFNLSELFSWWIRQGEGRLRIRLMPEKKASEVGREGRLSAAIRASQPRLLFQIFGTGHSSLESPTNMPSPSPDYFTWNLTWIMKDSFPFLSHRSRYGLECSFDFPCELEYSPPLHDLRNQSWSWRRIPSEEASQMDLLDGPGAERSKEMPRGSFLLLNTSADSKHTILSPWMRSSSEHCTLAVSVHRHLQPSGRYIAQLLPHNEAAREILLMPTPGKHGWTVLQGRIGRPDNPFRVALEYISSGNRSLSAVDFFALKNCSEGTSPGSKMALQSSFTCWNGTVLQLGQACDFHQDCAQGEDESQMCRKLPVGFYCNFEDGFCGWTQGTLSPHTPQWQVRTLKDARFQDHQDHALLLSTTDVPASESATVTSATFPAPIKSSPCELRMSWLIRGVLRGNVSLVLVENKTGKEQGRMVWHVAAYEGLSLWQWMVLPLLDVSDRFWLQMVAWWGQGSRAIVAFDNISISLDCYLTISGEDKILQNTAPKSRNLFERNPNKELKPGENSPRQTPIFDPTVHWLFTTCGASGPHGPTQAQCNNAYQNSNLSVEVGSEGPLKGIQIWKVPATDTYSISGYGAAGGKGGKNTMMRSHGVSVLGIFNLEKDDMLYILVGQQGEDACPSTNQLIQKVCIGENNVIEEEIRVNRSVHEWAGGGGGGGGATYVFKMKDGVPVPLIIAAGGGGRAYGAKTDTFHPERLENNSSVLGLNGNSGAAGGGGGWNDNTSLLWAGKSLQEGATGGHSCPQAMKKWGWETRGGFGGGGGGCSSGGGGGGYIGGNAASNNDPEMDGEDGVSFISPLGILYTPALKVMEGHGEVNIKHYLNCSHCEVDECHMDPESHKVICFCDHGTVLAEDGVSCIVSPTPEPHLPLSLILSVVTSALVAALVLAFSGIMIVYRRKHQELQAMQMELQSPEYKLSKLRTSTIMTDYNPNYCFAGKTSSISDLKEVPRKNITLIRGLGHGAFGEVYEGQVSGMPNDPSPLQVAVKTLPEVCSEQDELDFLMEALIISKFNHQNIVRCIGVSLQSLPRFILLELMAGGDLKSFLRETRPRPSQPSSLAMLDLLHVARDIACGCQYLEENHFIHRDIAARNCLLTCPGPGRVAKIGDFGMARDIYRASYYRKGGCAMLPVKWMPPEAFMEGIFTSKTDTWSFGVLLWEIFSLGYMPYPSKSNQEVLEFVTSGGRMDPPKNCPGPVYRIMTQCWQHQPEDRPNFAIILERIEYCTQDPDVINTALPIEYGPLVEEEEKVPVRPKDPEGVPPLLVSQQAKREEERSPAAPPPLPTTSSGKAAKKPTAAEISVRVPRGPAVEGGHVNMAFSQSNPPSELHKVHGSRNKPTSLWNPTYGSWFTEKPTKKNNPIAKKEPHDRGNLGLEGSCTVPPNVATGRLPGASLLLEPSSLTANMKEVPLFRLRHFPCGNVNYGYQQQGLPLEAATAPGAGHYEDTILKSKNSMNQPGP
T2 sequence (O60674 whole entry): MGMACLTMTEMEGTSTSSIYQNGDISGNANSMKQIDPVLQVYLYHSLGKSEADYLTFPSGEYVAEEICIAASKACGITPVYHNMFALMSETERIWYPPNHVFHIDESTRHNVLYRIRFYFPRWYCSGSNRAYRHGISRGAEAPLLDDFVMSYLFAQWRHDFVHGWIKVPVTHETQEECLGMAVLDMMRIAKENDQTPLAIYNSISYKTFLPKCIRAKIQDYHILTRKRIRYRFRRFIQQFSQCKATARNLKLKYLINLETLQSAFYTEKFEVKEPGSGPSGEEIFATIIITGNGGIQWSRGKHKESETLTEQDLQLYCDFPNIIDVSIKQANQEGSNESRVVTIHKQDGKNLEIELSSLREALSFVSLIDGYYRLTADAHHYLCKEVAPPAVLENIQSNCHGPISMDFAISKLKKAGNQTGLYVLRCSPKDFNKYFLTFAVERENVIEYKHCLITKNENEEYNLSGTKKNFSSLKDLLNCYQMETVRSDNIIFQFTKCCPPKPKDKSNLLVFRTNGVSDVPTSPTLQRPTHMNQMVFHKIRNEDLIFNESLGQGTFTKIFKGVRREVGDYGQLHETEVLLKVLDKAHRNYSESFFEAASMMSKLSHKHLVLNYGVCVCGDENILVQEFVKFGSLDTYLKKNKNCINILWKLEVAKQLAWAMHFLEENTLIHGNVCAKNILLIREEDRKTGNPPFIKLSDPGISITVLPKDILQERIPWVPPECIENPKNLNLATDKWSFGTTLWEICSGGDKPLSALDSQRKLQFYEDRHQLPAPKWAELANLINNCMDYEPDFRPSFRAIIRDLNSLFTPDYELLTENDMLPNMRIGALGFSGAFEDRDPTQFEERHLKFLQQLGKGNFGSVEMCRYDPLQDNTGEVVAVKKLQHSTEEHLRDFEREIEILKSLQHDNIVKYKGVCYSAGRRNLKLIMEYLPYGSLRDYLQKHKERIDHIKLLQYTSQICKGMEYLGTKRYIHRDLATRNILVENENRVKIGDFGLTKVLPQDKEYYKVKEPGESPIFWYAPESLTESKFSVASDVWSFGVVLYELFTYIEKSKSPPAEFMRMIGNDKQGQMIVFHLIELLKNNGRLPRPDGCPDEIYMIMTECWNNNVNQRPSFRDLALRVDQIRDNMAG

SMILES | IC50 ([1]; ALK Kinase Inhibition) [nM] | IC50 ([2]; JAK2 Kinase Inhibition) [nM] | IC50 [1, 3] [nM] | IC50 [2, 4] [nM]
CCc1nc2ccc(Nc3ncc4ccc(-c5cccc(S(=O)(=O)NC(C)(C)C)c5)n4n3)cc2[nH]1 [Example 1328, N-tert-Butyl-3-[2-(2-ethyl-3H-benzimidazol-5-ylamino)-pyrrolo[2,1-f][1,2,4]triazin-7-yl]-benzenesulfonamide] | – | – | 100 to 1000 | < 100
CS(=O)(=O)c1cccc(-c2ccc3cnc(Nc4ccc5[nH]c(CN6CCOCC6)nc5c4)nn23)c1 [Example 1537, [7-(3-Methanesulfonyl-phenyl)-pyrrolo[2,1-f][1,2,4]triazin-2-yl]-(2-morpholin-4-ylmethyl-1H-benzimidazol-5-yl)-amine] | 1000 to 10000 | < 100 | – | –
c1ccc2ncc(-c3ccc4cnc(Nc5ccc(N6CCOCC6)cc5)nn34)cc2c1 [Example 1033, (4-Morpholin-4-yl-phenyl)-(7-quinolin-3-yl-pyrrolo[2,1-f][1,2,4]triazin-2-yl)-amine] | – | – | 1000 to 10000 | < 100
Cc1nc2ccc(Nc3ncc4ccc(-c5cccc(S(=O)(=O)NC(C)(C)C)c5)n4n3)cc2n1C [Example 1331, N-tert-Butyl-3-[2-(2,3-dimethyl-3H-benzimidazol-5-ylamino)-pyrrolo[2,1-f][1,2,4]triazin-7-yl]-benzenesulfonamide] | – | – | 100 to 1000 | < 100
Fc1cc(Nc2ncc3ccc(-c4cccc(Cl)c4)n3n2)ccc1N1CCOCC1 [Example 187, [7-(3-Chloro-phenyl)-pyrrolo[2,1-f][1,2,4]triazin-2-yl]-(3-fluoro-4-morpholin-4-yl-phenyl)-amine] | > 10000 | < 100 | – | –
CC(C)S(=O)(=O)c1ccc(-c2ccc3cnc(Nc4cccc(N5CCOCC5)c4)nn23)cc1 [Example 192, (3-Morpholin-4-yl-phenyl)-{7-[4-(propane-2-sulfonyl)-phenyl]-pyrrolo[2,1-f][1,2,4]triazin-2-yl}-amine] | 1000 to 10000 | < 100 | – | –
c1cncc(-c2ccc3cnc(Nc4ccc(N5CCOCC5)cc4)nn23)c1 [Example 11, (4-Morpholin-4-yl-phenyl)-(7-pyridin-3-yl-pyrrolo[2,1-f][1,2,4]triazin-2-yl)-amine] | 1000 to 10000 | < 100 | – | –
CN(c1ccccc1-c1ccc2cnc(Nc3ccc(N4CCOCC4)cc3)nn12)S(C)(=O)=O [Example 626, N-Methyl-N-{2-[2-(4-morpholin-4-yl-phenylamino)pyrrolo[2,1-f][1,2,4]triazin-7-yl]phenyl}methanesulfonamide] | – | – | 100 to 1000 | < 100
COc1cc2c(cc1Nc1ncc3ccc(-c4ccccc4N(C)S(C)(=O)=O)n3n1)CN(C(C)C)C2 [Example 876, N-{2-[2-(2-Isopropyl-6-methoxy-2,3-dihydro-1H-isoindol-5-ylamino)-pyrrolo[2,1-f][1,2,4]triazin-7-yl]-phenyl}-N-methyl-methanesulfonamide] | – | – | < 100 | 100 to 1000
OCCN1CCN(c2ccc(Nc3ncc4ccc(-c5cccnc5)n4n3)cc2)CC1 [Example 115, 2-{4-[4-(7-Pyridin-3-yl-pyrrolo[2,1-f][1,2,4]triazin-2-ylamino)-phenyl]-piperazin-1-yl}-ethanol] | 100 to 1000 | < 100 | – | –
CN1CCOCc2cc(Nc3ncc4ccc(-c5ccccc5N(C)S(C)(=O)=O)n4n3)ccc21 [Example 616, N-Methyl-N-{2-[2-(1-methyl-1,2,3,5-tetrahydro-benzo[e][1,4]oxazepin-7-ylamino)-pyrrolo[2,1-f][1,2,4]triazin-7-yl]-phenyl}-methanesulfonamide] | – | – | 100 to 1000 | < 100
Cn1cnc2ccc(Nc3ncc4ccc(-c5ccc(S(C)(=O)=O)cc5)n4n3)cc21 [Example 1301, [7-(4-Methanesulfonyl-phenyl)-pyrrolo[2,1-f][1,2,4]triazin-2-yl]-(3-methyl-3H-benzimidazol-5-yl)-amine] | – | – | 100 to 1000 | < 100
CC(=O)Nc1cccc(Nc2ncc3ccc(-c4ccccc4N(C)S(C)(=O)=O)n3n2)c1 [Example 1375, N-(3-{7-[2-(Methanesulfonyl-methyl-amino)-phenyl]-pyrrolo[2,1-f][1,2,4]triazin-2-ylamino}-phenyl)-acetamide] | 100 to 1000 | < 100 | – | –
O=S(=O)(c1cccc(-c2ccc3cnc(Nc4ccc(-c5cccnc5)cc4)nn23)c1)N1CCCC1 [Example 1086, (4-Pyridin-3-yl-phenyl)-{7-[3-(pyrrolidine-1-sulfonyl)-phenyl]-pyrrolo[2,1-f][1,2,4]triazin-2-yl}-amine] | – | – | > 10000 | < 100
CC(=O)Nc1cccc(Nc2ncc3ccc(-c4cccc(NS(C)(=O)=O)c4)n3n2)c1 [Example 1363, N-{3-[7-(3-Methanesulfonylamino-phenyl)-pyrrolo[2,1-f][1,2,4]triazin-2-ylamino]-phenyl}-acetamide] | – | – | 1000 to 10000 | < 100
CN1CCN(C)C(c2ccc(Nc3ncc4ccc(-c5cccc(S(=O)(=O)NC(C)(C)C)c5)n4n3)cc2)C1 (stereo not shown) [Example 1567, N-tert-Butyl-3-{2-[4-(1,4-dimethyl-piperazin-2-yl)-phenylamino]-pyrrolo[2,1-f][1,2,4]triazin-7-yl}-benzenesulfonamide] | 100 to 1000 | < 100 | – | –
CC(C)(C)NS(=O)(=O)c1cccc(-c2ccc3cnc(Nc4ccc5[nH]c(=O)[nH]c5c4)nn23)c1 [Example 1298, N-tert-Butyl-3-[2-(2-oxo-2,3-dihydro-1H-benzimidazol-5-ylamino)-pyrrolo[2,1-f][1,2,4]triazin-7-yl]-benzenesulfonamide] | – | – | 100 to 1000 | < 100

More lines, now with the values ahead:

IC50 ([1]; ALK Kinase Inhibition) [nM] | IC50 ([2]; JAK2 Kinase Inhibition) [nM] | IC50 [1, 3] [nM] | IC50 [2, 4] [nM] | SMILES
< 100 | 100 to 1000 | – | – | COc1cc(N2CCC[C@@H](C(=O)N3CCN(C)CC3)C2)ccc1Nc1ncc2ccc(-c3ccccc3OC)n2n1 [Example 463, ((R)-1-{3-Methoxy-4-[7-(2-methoxy-phenyl)-pyrrolo[2,1-f][1,2,4]triazin-2-ylamino]-phenyl}-piperidin-3-yl)-(4-methyl-piperazin-1-yl)-methanone]
– | – | < 100 | 100 to 1000 | COc1cc([C@H]2CC[C@H](N3CCOCC3)CC2)ccc1Nc1ncc2ccc(-c3ccccc3N(C)S(C)(=O)=O)n2n1 [Example 1248, N-{2-[2-({2-methoxy-4-[trans-4-(morpholin-4-yl)cyclohexyl]phenyl}amino)pyrrolo[2,1-f][1,2,4]triazin-7-yl]phenyl}-N-methylmethanesulfonamide]
– | – | < 100 | < 100 | CN1CCN(c2cccc(Nc3ncc4ccc(-c5cccc(S(=O)(=O)NC(C)(C)C)c5)n4n3)c2)CC1 [Example 883, N-tert-Butyl-3-{2-[3-(4-methyl-piperazin-1-yl)-phenylamino]-pyrrolo[2,1-f][1,2,4]triazin-7-yl}-benzenesulfonamide]
– | – | 100 to 1000 | < 100 | COc1ccccc1-c1ccc2cnc(Nc3ccn(CCN4CCOCC4)n3)nn12 [Example 1183, [7-(2-Methoxy-phenyl)-pyrrolo[2,1-f][1,2,4]triazin-2-yl]-[1-(2-morpholin-4-yl-ethyl)-1H-pyrazol-3-yl]-amine]
– | – | < 100 | < 100 | COc1cc(C2CCN(C)CC2)ccc1Nc1ncc2ccc(-c3ccccc3OC)n2n1 [Example 762, [2-Methoxy-4-(1-methyl-piperidin-4-yl)-phenyl]-[7-(2-methoxy-phenyl)-pyrrolo[2,1-f][1,2,4]triazin-2-yl]-amine]
100 to 1000 | < 100 | – | – | CN1CCN(c2ccc(Nc3ncc4ccc(-c5cccc(S(C)(=O)=O)c5)n4n3)cc2)CC1 [Example 82, [7-(3-Methanesulfonyl-phenyl)-pyrrolo[2,1-f][1,2,4]triazin-2-yl]-[4-(4-methyl-piperazin-1-yl)-phenyl]-amine]
– | – | < 100 | < 100 | COc1ccccc1-c1ccc2cnc(Nc3ccc(C4CCNC4)cc3)nn12 (stereo not shown) [Example 1012, [7-(2-Methoxy-phenyl)-pyrrolo[2,1-f][1,2,4]triazin-2-yl]-(4-pyrrolidin-3-yl-phenyl)-amine]
< 100 | < 100 | – | – | COc1ccc(Cl)cc1-c1ccc2cnc(Nc3cccc(N4CCN(CC(C)(C)O)CC4)c3)nn12 [Example 219, 1-(4-{3-[7-(5-Chloro-2-methoxy-phenyl)-pyrrolo[2,1-f][1,2,4]triazin-2-ylamino]-phenyl}-piperazin-1-yl)-2-methyl-propan-2-ol]
100 to 1000 | < 100 | – | – | CN1CCN(c2cccc(Nc3ncc4ccc(-c5cccc(Cl)c5)n4n3)c2)CC1 [Example 161, [7-(3-Chloro-phenyl)-pyrrolo[2,1-f][1,2,4]triazin-2-yl]-[3-(4-methyl-piperazin-1-yl)-phenyl]-amine]
< 100 | < 100 | – | – | COc1cc(N2CCN(C3CCN(C)CC3)CC2)ccc1Nc1ncc2ccc(-c3ccccc3OC)n2n1 [Example 231, {2-Methoxy-4-[4-(1-methyl-piperidin-4-yl)-piperazin-1-yl]-phenyl}-[7-(2-methoxy-phenyl)-pyrrolo[2,1-f][1,2,4]triazin-2-yl]-amine]
< 100 | 100 to 1000 | – | – | COCCN1CCc2cc(Nc3ncc4ccc(-c5ccccc5OC)n4n3)c(OC)cc2CC1 [Example 48, [8-Methoxy-3-(2-methoxy-ethyl)-2,3,4,5-tetrahydro-1H-benzo[d]azepin-7-yl]-[7-(2-methoxy-phenyl)-pyrrolo[2,1-f][1,2,4]triazin-2-yl]-amine]
– | – | 100 to 1000 | 100 to 1000 | COc1cc(N2CCN(C[C@H](C)O)CC2)ccc1Nc1ncc2ccc(-c3ccccc3[S+](C)[O-])n2n1 (stereo partly drawn) [Example 545, (S)-1-(4-{4-[7-(2-Methanesulfinyl-phenyl)-pyrrolo[2,1-f][1,2,4]triazin-2-ylamino]-3-methoxy-phenyl}-piperazin-1-yl)-propan-2-ol]
